Values quoted from earlier work in paper PMC9851200, “Multiparameter phenotypic screening for endogenous TFEB and TFE3 translocation identifies novel chemical series modulating lysosome function” (Autophagy, 2022).

How the values were obtained:
Design in all cases: method as in original PKIS2 published data
[1] = molecular target: T1, kinases (KINOMEscan panel) (Homo sapiens, UniProt O15197); details: kinase EPHB6; Published KINOMEscan; ref original PKIS2 published data; cited from earlier work
T1 sequence (O15197 32-1021): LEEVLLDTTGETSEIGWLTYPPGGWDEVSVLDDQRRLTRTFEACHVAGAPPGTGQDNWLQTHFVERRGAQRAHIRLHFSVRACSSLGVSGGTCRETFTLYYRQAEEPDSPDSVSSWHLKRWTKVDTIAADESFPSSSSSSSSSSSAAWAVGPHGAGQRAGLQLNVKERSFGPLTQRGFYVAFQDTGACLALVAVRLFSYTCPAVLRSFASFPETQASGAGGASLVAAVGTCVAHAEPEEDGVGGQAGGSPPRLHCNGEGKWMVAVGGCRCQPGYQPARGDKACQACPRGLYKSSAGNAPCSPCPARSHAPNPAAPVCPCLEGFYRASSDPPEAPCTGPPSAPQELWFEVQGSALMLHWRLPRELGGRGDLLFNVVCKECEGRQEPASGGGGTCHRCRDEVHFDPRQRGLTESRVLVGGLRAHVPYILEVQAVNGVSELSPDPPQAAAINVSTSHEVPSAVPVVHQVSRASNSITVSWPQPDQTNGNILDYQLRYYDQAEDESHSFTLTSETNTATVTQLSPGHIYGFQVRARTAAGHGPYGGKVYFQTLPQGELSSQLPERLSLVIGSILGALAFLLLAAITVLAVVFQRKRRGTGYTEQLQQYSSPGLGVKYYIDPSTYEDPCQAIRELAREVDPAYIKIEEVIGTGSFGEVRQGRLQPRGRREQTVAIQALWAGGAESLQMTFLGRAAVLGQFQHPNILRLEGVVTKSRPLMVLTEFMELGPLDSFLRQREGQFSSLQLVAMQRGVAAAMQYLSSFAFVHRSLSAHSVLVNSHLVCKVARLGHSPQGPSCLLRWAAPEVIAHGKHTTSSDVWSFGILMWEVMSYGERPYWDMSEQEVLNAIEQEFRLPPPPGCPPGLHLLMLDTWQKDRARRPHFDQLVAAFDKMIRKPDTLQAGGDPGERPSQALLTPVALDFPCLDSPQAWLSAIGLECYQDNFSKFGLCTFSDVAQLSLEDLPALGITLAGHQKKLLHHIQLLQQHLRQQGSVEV

[2] = molecular target: kinases (KINOMEscan panel) (Homo sapiens, UniProt P37023); details: ACVRL1; Published KINOMEscan; ref original PKIS2 published data; cited from earlier work
[3] = molecular target: kinases (KINOMEscan panel) (Homo sapiens, UniProt P51957); details: kinase NEK4; Published KINOMEscan; ref original PKIS2 published data; cited from earlier work
[4] = molecular target: kinases (KINOMEscan panel) (Homo sapiens, UniProt Q04759); details: kinase PRKCQ; Published KINOMEscan; ref original PKIS2 published data; cited from earlier work
[5] = molecular target: kinases (KINOMEscan panel) (Homo sapiens, UniProt Q13177); details: PAK2; Published KINOMEscan; ref original PKIS2 published data; cited from earlier work
[6] = molecular target: T2, kinases (KINOMEscan panel) (Homo sapiens, UniProt Q9UL54); details: kinase TAOK2; Published KINOMEscan; ref original PKIS2 published data; cited from earlier work
T2 sequence (Q9UL54 1-1235): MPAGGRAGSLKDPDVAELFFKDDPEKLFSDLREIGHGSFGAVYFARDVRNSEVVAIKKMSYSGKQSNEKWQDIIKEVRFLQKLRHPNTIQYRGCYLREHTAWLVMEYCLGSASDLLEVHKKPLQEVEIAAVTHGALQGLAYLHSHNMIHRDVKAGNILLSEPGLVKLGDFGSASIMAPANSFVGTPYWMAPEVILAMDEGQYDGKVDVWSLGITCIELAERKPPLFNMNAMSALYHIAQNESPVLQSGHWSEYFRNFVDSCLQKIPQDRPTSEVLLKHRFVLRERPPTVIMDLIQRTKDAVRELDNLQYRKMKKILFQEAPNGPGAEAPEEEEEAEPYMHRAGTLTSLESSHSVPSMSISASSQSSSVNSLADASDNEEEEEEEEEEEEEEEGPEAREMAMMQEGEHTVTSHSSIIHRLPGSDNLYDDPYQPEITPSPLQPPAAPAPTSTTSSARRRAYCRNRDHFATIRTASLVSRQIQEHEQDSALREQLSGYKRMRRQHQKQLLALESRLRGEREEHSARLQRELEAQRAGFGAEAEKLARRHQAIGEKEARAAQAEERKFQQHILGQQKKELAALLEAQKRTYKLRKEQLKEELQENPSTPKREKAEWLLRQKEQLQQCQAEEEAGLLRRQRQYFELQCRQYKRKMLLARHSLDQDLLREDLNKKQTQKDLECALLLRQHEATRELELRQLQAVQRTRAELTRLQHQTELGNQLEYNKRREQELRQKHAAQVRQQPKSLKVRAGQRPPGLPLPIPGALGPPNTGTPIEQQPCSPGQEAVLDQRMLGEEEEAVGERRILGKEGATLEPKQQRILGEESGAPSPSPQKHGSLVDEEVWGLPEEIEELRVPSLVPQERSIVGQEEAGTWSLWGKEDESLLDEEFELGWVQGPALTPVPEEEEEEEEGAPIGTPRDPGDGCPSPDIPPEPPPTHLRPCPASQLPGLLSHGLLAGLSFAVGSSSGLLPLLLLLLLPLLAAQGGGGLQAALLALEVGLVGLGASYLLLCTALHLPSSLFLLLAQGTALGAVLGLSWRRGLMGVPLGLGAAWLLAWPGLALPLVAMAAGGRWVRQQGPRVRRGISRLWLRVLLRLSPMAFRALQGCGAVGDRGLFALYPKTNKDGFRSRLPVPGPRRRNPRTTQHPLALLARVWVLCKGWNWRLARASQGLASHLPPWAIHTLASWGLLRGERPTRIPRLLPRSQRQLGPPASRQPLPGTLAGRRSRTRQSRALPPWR

kinases (KINOMEscan panel) (Homo sapiens, UniProt Q13177), sequence (Q13177 whole entry): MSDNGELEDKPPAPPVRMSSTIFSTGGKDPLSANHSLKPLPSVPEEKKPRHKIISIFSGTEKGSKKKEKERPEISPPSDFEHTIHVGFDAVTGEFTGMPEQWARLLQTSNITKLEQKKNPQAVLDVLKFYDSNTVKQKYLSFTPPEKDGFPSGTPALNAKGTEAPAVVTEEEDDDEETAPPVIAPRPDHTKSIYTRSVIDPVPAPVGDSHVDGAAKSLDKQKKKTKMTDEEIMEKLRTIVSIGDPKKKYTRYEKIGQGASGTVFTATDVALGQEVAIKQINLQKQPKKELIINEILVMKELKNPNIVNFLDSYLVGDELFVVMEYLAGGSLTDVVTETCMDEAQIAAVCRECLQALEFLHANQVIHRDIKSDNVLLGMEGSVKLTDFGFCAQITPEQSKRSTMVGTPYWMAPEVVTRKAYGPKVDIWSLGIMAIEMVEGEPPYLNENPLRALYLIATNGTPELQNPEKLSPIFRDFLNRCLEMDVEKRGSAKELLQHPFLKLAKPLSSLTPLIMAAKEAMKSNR
kinases (KINOMEscan panel) (Homo sapiens, UniProt P37023), sequence (P37023 22-503): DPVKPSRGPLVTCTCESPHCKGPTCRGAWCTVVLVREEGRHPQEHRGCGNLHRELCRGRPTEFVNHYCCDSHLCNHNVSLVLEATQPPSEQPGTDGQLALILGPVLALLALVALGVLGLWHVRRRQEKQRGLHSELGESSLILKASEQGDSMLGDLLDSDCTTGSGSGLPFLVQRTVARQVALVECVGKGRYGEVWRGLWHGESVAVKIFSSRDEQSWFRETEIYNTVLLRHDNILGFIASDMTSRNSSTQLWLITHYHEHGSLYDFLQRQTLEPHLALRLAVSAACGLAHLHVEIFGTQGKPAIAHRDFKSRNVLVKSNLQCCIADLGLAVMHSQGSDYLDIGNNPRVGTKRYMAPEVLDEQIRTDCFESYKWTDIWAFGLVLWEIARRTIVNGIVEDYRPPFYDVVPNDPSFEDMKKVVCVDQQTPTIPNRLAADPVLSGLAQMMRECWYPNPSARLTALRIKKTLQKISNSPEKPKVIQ
kinases (KINOMEscan panel) (Homo sapiens, UniProt Q04759), sequence (Q04759 whole entry): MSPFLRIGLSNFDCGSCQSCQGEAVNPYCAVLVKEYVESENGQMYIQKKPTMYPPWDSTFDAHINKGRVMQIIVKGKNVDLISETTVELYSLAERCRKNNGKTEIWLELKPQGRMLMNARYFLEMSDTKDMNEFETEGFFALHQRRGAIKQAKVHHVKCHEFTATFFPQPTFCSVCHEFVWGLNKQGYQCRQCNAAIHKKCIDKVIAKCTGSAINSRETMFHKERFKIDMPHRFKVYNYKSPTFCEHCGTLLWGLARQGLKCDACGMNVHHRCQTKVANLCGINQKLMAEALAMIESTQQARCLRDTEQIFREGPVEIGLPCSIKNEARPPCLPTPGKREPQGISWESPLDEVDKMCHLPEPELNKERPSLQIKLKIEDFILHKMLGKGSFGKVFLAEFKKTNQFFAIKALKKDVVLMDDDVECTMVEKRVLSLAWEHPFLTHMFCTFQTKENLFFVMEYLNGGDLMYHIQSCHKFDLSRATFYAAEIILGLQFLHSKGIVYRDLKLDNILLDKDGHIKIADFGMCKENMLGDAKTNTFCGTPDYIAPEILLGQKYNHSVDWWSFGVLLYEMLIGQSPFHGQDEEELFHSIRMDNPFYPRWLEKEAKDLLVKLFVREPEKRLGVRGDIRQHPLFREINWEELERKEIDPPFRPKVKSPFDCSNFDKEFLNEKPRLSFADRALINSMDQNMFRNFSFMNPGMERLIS
kinases (KINOMEscan panel) (Homo sapiens, UniProt P51957), sequence (P51957 whole entry): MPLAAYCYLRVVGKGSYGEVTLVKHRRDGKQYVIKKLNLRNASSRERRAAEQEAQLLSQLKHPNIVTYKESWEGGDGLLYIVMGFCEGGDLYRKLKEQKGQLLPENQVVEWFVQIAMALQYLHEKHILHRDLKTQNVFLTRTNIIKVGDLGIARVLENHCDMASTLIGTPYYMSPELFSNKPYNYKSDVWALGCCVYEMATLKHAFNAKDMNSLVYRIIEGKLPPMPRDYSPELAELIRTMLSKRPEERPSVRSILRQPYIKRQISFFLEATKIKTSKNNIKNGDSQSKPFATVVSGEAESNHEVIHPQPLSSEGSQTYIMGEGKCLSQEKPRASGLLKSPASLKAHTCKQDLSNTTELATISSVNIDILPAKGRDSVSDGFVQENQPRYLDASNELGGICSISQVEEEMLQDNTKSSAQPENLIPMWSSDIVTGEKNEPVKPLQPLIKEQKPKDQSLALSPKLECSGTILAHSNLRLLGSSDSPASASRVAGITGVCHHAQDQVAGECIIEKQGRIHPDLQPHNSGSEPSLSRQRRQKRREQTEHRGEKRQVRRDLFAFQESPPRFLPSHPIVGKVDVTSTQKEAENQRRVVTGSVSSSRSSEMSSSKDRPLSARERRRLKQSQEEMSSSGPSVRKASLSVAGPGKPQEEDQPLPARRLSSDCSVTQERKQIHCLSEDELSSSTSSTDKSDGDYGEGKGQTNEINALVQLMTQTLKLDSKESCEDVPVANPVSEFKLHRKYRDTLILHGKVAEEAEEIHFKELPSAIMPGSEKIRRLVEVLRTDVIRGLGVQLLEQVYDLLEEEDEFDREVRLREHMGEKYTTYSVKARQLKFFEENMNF

For `Cc1cccc(-c2nc(Nc3ccncc3)c3ccccc3n2)n1` [NK215], the “KINOMEscan EPHB6” value [1] is listed as 0, the “KINOMEscan ACVRL1” value [2] is listed as 65 and the “KINOMEscan NEK4” value [3] is listed as 0. For the same compound, the “KINOMEscan PRKCQ” value [4] was 0, the “KINOMEscan PAK2” value [5] was 0 and the “KINOMEscan TAOK2” value [6] was 17.
